78 compounds from the METLIN SMRT retention time set (Domingo-Almenara et al. 2019) can be followed below.

The structures appear in SMILES notation.

This series can be described thus: gradient 5% acetonitrile 3 min, to 50% in 2 min, to 85% in 15 min, held 3 min, 100 µL/min. The note with it: column: Zorbax Extend-C18 2.1 x 50 mm; eluents: water / acetonitrile, 0.1% formic acid. In short, it runs like this: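 Retention time was recorded from adduct peaks, which were picked computationally and each inspected manually. Pure standards ran in mixtures of ~100 molecules on HPLC coupled to a quadrupole time-of-flight mass spectrometer, in positive and negative ionization mode, through a Zorbax Extend-C18 column (2.1 × 50 mm, 1.8 μm) at 100 μL/min. Eluents were water and acetonitrile, each with 0.1% formic acid.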
In the case of `CN(C)c1cnc(-n2cc(NC(=O)c3ccc(C(F)(F)F)cc3)cn2)nc1`, the RP-LC retention time was determined as 833 s.
The result for `COc1ccc(NC(=O)N2CCC(c3nc4cccnc4n3C)C2)cc1` (stereo not drawn) reads 617 s; that for `Cc1nc2cccnc2n1CCN1CCN(C(=O)Nc2ccc(Br)cc2)CC1`, 619 s; that for `CC1=C(c2ccc(F)cc2)S(=O)(=O)N=C1N1CCC(NC(=O)C2CCCO2)CC1` (stereo not drawn), 716 s.
The result for `Cc1nc(CCNC(=O)C2CCN(S(=O)(=O)c3ccc(F)c(Cl)c3)CC2)cs1` reads 762 s.
Next, `Clc1ccc2nc(-c3ccc(N4CCOCC4)cc3)c(Nc3ccc4c(c3)OCCO4)n2c1`: 694 s; `Cn1nccc1-c1cccc(-c2noc(-c3ccc(Br)o3)n2)c1`: 1090 s.
Regarding `COc1ccc(CN2CCC3(CC2)CC(O)CCO3)cc1` (stereo not drawn), the RP-LC retention time amounted to 564 s.
Next, `CCCC(C)NC(=O)c1ccc(Cl)c(Cl)c1` (stereo not drawn): 1130 s.
Next, `Cc1nnc(-c2ccc3ccn(CC(=O)N4CCN(c5cccc(C)c5C)CC4)c3c2)o1`: 997 s; `Cc1cccc(NC(=O)/C=C/c2ccc([N+](=O)[O-])cc2)c1`: 878 s.
The result for `CCOC(=O)C1CCN(c2nc(=O)n(CC(=O)Nc3ccccc3C)c3ccccc23)CC1` reads 790 s; that for `COc1ccc(NC(=O)c2c(O)c3cccnc3n(-c3ccc(F)cc3)c2=O)cc1Cl`, 1250 s.
Take `CNC(=O)Nc1ccc(C2(C(=O)N3CCN(c4ccccc4F)CC3)CCC2)cc1`: the RP-LC retention time was found to be 799 s.
`COc1cc2ncnc(Nc3ccc(F)c(Cl)c3)c2cc1NC(=O)/C=C/CN1CCCCC1` displayed an RP-LC retention time of 704 s.
`COc1ccc(OC)c(S(=O)(=O)N2CCC(n3cnnc3C)CC2)c1` displayed an RP-LC retention time of 652 s.
Next, `CCS(=O)(=O)c1nc2ccc(NS(=O)(=O)c3cccc(Cl)c3)cc2s1`: 928 s.
The result for `Cn1nc2c(c1NC(=O)COc1ccc(Cl)cc1Cl)CCC2` reads 815 s; that for `Cc1cc(-c2ccc(S(=O)(=O)N3CCC(C(=O)N4CCCCCC4)CC3)o2)n[nH]1`, 772 s; that for `COc1ccc(-c2ccc(CNCC3CCNCC3)o2)cc1Cl`, 579 s.
`Cc1nc(N2CCN(CCO)CC2)nc2c1C(=O)CC(C)(C)C2`: the RP-LC retention time is 604 s.
On to `O=C(CC1CCN(C(=O)c2ccc3oc(C4CC4)nc3c2)CC1)N1CCOCC1`, for which the RP-LC retention time is 619 s.
The result for `CCOC(=O)CSc1nc2c(sc3ccccc32)c(=O)n1CCc1c[nH]c2ccccc12` reads 1220 s; that for `CN1CCCCCCN(C(=O)c2cnccn2)[C@H]2CCC[C@H]2C1=O`, 649 s; that for `O=C(NCc1ccc(N2CCOCC2)nc1)c1ccccc1Br`, 581 s.
The result for `COc1ccccc1N1CCN(C(=O)C2CC(=O)N(c3n[nH]c4cccc(F)c34)C2)CC1` (stereo not drawn) reads 686 s.
The result for `COc1ccccc1-c1nnc(C2CCN(S(=O)(=O)c3c(C)cc(C)cc3C)CC2)o1` reads 1030 s; that for `O=C(NCc1csc(-c2cccs2)n1)C1CCN(C(=O)c2ccccc2F)CC1`, 743 s.
For `COc1ccc(C)cc1NC(=O)Cn1nc2cc(C)nc(Nc3ccc(C)cc3)n2c1=O`, the RP-LC retention time is 1150 s.
Next, `CCC(C(=O)Nc1cc(-c2nc3ccccc3[nH]2)ccc1C)c1ccccc1` (stereo not drawn): 755 s; `CC1CCN(C(=O)c2ccc(OCC3CCCN(C(=O)c4ccc(C#N)cc4)C3)cc2)CC1` (stereo not drawn): 956 s; `Fc1ccc(-c2noc(-c3ccc(N4CCCCC4)nc3)n2)cc1`: 1360 s.
Next, `O=S(=O)(c1cccnc1)N1CCCC(Cn2c(C3CC3)nc3cccnc32)C1` (stereo not drawn): 650 s; `CCOc1ccc(Cc2nc(-c3ccc4oc(CC)nc4c3)no2)cc1`: 1130 s; `O=C(Cn1nc2c3cc(-c4ccccc4)nn3ccn2c1=O)N1CCCc2ccccc21`: 940 s.
Compound `Cc1cc(F)ccc1NC(=O)C1CCN(S(=O)(=O)c2cc(C(=O)N(C)C)cs2)CC1` displayed an RP-LC retention time of 758 s.
The result for `NS(=O)(=O)c1ccc(NC(=O)CC2Sc3ccc(C(F)(F)F)cc3NC2=O)cc1` (stereo not drawn) reads 722 s.
The result for `Cc1oc(C2CCN(S(=O)(=O)c3cccc(C#N)c3)CC2)nc1C(=O)N1CCOCC1` reads 734 s; that for `O=C(CN1C(=O)CCC1=O)Nc1nnc(-c2ccc(C(F)(F)F)cc2)o1`, 674 s; that for `Cc1ccccc1-c1noc(Cn2c(=O)n(Cc3cccc(Cl)c3)c(=O)c3sccc32)n1`, 819 s.
Next, `CCCc1noc(-c2ccnc(-n3cnc(C(=O)NC4CCCC4)c3)c2)n1`: 952 s.
In turn, `CNC(=O)N1CCCN(C2=NS(=O)(=O)C(c3ccc(C)c(C)c3)=C2C)CC1` displayed an RP-LC retention time of 711 s.
`O=C(Cc1ccc(NC(=O)c2ccncc2)cc1)NC1CC1`: the RP-LC retention time was determined as 547 s.
In turn, `CCOC(=O)c1[nH]c(C)c(C(=O)C(C)N(Cc2ccc(F)cc2)C(=O)C2CC2)c1C` (stereo not drawn) showed an RP-LC retention time of 917 s.
Compound `O=C(Nc1cccc(C(=O)N2CCN(c3ccc(Cl)cc3)CC2)c1)C1=CSCCO1` had an RP-LC retention time of 955 s.
Next, `Cc1cccc(NC(=O)CN2CCc3[nH]c4c(C)c(C)ccc4c(=O)c3C2)c1`: 626 s.
As to `NCC(=O)Nc1ccc(Cl)cc1C(=O)c1ccc[nH]1`, the RP-LC retention time is 665 s.
Next, `COc1ccc(CCc2nc3nccc(-c4ccc(OC)c(OC)c4)n3n2)cc1OC`: 781 s.
`COc1ccc(NC(=O)C2CCCN(S(=O)(=O)c3cc(-c4noc(C)n4)cs3)C2)cc1Cl` (stereo not drawn) had an RP-LC retention time of 991 s.
With `CCc1nc(-c2cc(S(=O)(=O)Nc3ccccc3Br)c(C)s2)cs1`, the RP-LC retention time was 1130 s.
The result for `Cc1oc(-c2ccc(C(=O)NCCCN3CCCC3=O)cc2)nc1CN1CCc2ccccc21` reads 853 s; that for `Cn1ccc2ccn(CC(=O)NCc3ccc(Cl)cc3)c(=O)c21`, 768 s; that for `COc1ccccc1C1(CNS(=O)(=O)c2ccc3c(c2)CCCC3)CCOCC1`, 1000 s.
Next, `COC(=O)c1cccc(NC(=O)CSc2cc(N3CCN(c4ccccc4OC)CC3)ncn2)c1`: 926 s; `Fc1ccc(CNc2ccc(-c3nc(-c4ccc(F)cc4)no3)cn2)cc1`: 1220 s; `COc1ccccc1NC(=O)N1CCN(c2ccc(-c3noc(C)n3)cn2)CC1`: 724 s.
The result for `Cc1cccc(-n2c(=O)c3sccc3n(Cc3nc(-c4cccc(Br)c4)no3)c2=O)c1` reads 1130 s; that for `O=C(NCc1ccccc1)C1CCN(S(=O)(=O)c2cc(-c3noc(C4CC4)n3)cs2)CC1`, 935 s; that for `O=C(Nc1ccccc1-c1nc2ccccc2[nH]1)C1CC1`, 623 s.
The compound `CC(C)c1ccccc1OCC(=O)Nc1cnn(C)c(=O)c1N1CCOCC1` gave an RP-LC retention time of 955 s.
The result for `Cn1cnc(S(=O)(=O)N2CC(n3cc(C(=O)NCC4CC4)nn3)C2)c1` reads 622 s; that for `CCOc1ccc(C2=NC3(CCN(C)CC3)NC(c3ccccc3O)C2)cc1` (stereo not drawn), 604 s.
Next, `CCOc1cc(C2C(C(=O)OC(C)C)=C(C)N=C3SCCC(=O)N32)ccc1OC(C)=O` (stereo not drawn): 908 s; `Cc1ccc(NC(=O)c2cccn2Cc2noc(C)n2)c(Br)c1`: 942 s; `Cc1ccc(S(=O)(=O)N2CCCCCC2)cc1-c1nnc(-c2ccccc2)o1`: 1190 s.
In the case of `CC(C)c1ccc(Nc2nc3ccncc3n(C(C)C)c2=O)cc1`, the RP-LC retention time is 774 s.
The result for `O=C(c1ccc(F)c(F)c1)N1CCCN(c2cc(-c3ccc4c(c3)OCO4)[nH]n2)CC1` reads 703 s; that for `C=Cc1ccc(Cn2cccc(S(=O)(=O)N3CCCC3)c2=O)cc1`, 886 s; that for `COc1cccc(S(=O)(=O)N2CCC(Cc3nncn3C(C)C)C2)c1` (stereo not drawn), 664 s.
`Cc1ccc(NS(=O)(=O)c2cc(-c3[nH]ncc3C(=O)N3CCCCC3)oc2C)cc1F` registered an RP-LC retention time of 806 s.
Next, `CCOC(=O)N1CCN(C(=O)Cn2cnc(-c3ccc(OC)cc3)cc2=O)CC1`: 652 s; `COc1cccc(N2CCCn3c2nc2c3c(=O)n(Cc3c(F)cccc3Cl)c(=O)n2C)c1`: 966 s; `Cc1ccc(CN2C[C@@H](CO)[C@H](NC(=O)c3cnccn3)C2)o1`: 550 s.
Next, `CC1CCCN(CC2CCN(S(=O)(=O)c3cccc(Cl)c3)CC2)C1` (stereo not drawn): 696 s; `CCCCOc1ccc(-c2nc3ccc(Br)cc3c(C(=O)O)c2C)cc1`: 963 s; `COc1ccc(Cn2c(=O)c3sccc3n(Cc3nc(-c4ccccc4C)no3)c2=O)cc1`: 1150 s.
The result for `O=C(c1cnn(-c2ccccc2)c1-n1cccc1)N1CCN(c2ccccn2)CC1` reads 623 s.
In the case of `COc1cc(CNC(=O)c2cc(C(C)(C)C)n3nccc3n2)cc(OC)c1`, the RP-LC retention time is 1110 s.
